One block for each compound: values may come before it.
Key:
[1] = molecular target: T1, Amine oxidase [flavin-containing] A (Homo sapiens, UniProt P21397); assay: Selectivity interaction (Enzyme panel (Eurofins-Cerep)) EUB0000262b MAOA; conditions: at 10 µM
[2] = molecular target: T2, Histamine H1 receptor (Homo sapiens, UniProt P35367); assay: Selectivity interaction (Enzyme panel (Eurofins-Cerep)) EUB0000262b HRH1; conditions: at 10 µM
[3] = molecular target: T1, Amine oxidase [flavin-containing] A; assay: Selectivity interaction (CEREP panel (Eurofins, binding assay)) EUB0000262b MAOA; conditions: at 10 µM
[4] = molecular target: Urotensin-2 receptor (Homo sapiens) (UniProt Q9UKP6); assay: Selectivity interaction (Enzyme panel (Eurofins-Cerep)) EUB0000262b UTS2R; conditions: at 10 µM
Chain of Urotensin-2 receptor (Homo sapiens) (Q9UKP6 whole entry): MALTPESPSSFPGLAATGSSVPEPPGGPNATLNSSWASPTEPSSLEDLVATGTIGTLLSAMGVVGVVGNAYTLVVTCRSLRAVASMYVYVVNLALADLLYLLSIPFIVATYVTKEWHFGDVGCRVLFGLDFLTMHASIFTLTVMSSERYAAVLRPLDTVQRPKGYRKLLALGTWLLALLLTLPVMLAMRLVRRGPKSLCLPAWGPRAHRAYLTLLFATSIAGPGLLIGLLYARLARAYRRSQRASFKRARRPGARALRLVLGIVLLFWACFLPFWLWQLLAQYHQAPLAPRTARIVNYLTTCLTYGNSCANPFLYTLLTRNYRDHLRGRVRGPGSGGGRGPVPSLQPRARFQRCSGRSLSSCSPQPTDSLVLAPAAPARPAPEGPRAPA

[5] = molecular target: Peroxisome proliferator-activated receptor gamma (Homo sapiens) (UniProt P37231); assay: Selectivity interaction (CEREP panel (Eurofins, binding assay)) EUB0000262b PPARG; conditions: at 10 µM
Chain of Peroxisome proliferator-activated receptor gamma (Homo sapiens) (P37231 whole entry): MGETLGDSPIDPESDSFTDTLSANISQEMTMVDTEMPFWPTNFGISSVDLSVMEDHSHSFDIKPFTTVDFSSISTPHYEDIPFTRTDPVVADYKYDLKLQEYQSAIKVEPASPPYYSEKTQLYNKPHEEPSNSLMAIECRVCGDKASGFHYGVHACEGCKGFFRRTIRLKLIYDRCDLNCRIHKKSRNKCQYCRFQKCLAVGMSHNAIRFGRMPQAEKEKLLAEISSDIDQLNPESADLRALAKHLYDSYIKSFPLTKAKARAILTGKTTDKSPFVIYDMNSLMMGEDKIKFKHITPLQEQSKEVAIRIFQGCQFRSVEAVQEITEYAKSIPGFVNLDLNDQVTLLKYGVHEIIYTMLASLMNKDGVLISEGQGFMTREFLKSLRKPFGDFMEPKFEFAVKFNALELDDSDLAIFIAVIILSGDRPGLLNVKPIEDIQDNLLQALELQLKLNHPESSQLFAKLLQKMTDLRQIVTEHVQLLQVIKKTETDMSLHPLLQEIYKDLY

[6] = molecular target: Delta-type opioid receptor (Homo sapiens) (UniProt P41143); assay: Selectivity interaction (CEREP panel (Eurofins, binding assay)) EUB0000262b OPRD1; conditions: at 10 µM
Chain of Delta-type opioid receptor (Homo sapiens) (P41143 whole entry): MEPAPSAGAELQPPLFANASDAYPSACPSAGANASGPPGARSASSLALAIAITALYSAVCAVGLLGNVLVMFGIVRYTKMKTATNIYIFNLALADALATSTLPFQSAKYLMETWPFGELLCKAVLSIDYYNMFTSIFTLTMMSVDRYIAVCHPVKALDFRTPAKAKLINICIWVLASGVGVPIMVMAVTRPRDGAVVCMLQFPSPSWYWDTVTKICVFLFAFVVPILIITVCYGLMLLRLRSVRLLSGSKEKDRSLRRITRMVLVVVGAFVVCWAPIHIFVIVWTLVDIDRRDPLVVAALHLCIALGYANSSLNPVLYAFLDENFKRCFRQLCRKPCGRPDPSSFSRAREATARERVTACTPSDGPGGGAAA

[7] = molecular target: Cholecystokinin receptor type A (Homo sapiens) (UniProt P32238); assay: Selectivity interaction (Enzyme panel (Eurofins-Cerep)) EUB0000262b CCKAR; conditions: at 10 µM
Chain of Cholecystokinin receptor type A (Homo sapiens) (P32238 whole entry): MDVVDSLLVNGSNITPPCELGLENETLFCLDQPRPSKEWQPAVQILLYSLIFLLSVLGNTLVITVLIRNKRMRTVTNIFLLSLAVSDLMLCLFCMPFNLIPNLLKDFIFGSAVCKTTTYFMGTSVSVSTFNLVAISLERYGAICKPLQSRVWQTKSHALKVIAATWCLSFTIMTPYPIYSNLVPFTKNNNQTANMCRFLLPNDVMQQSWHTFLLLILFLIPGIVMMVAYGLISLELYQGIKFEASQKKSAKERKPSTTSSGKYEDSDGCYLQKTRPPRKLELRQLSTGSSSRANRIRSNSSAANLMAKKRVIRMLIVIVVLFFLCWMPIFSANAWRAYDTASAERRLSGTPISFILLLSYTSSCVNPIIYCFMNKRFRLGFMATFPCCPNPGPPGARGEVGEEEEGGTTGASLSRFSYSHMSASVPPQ

[8] = molecular target: T3, Adenosine receptor A3 (Homo sapiens) (UniProt P0DMS8); assay: Selectivity interaction (Enzyme panel (Eurofins-Cerep)) EUB0000262b ADORA3; conditions: at 10 µM
T3 sequence (whole entry): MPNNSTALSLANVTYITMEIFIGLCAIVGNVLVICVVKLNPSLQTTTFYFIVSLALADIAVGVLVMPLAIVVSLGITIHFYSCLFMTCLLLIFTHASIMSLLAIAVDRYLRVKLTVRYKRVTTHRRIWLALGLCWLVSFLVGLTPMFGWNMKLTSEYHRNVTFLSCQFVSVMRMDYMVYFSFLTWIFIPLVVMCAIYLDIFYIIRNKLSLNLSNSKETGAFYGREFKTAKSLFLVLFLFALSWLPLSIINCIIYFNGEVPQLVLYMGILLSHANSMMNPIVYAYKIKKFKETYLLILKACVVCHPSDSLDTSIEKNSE

[9] = molecular target: T3, Adenosine receptor A3 (Homo sapiens); assay: Selectivity interaction (CEREP panel (Eurofins, binding assay)) EUB0000262b ADORA3; conditions: at 10 µM
[10] = molecular target: T4, Prostaglandin G/H synthase 2 (Homo sapiens) (UniProt P35354); assay: Selectivity interaction (Enzyme panel (Eurofins-Cerep)) EUB0000262b PTGS2; conditions: at 10 µM
T4 sequence (whole entry): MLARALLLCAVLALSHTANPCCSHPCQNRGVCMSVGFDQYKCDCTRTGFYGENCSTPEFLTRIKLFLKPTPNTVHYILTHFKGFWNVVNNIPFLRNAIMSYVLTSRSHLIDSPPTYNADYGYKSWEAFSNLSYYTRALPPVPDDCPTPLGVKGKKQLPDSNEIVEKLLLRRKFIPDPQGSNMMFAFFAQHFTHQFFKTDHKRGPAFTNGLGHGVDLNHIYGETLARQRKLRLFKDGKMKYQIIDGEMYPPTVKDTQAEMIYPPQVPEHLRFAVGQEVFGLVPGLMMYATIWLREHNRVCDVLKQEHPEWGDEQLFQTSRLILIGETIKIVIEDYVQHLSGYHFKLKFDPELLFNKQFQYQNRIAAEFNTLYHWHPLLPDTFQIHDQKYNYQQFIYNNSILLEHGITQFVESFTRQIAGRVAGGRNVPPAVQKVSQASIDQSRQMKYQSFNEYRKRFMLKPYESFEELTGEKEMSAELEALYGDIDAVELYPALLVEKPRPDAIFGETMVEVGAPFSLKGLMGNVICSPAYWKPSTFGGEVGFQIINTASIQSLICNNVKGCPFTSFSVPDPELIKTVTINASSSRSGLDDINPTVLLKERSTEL

[11] = molecular target: Urotensin-2 receptor (Homo sapiens) (UniProt Q9UKP6); assay: Selectivity interaction (CEREP panel (Eurofins, binding assay)) EUB0000262b UTS2R; conditions: at 10 µM
[12] = molecular target: Peroxisome proliferator-activated receptor gamma (Homo sapiens) (UniProt P37231); assay: Selectivity interaction (Enzyme panel (Eurofins-Cerep)) EUB0000262b PPARG; conditions: at 10 µM
[13] = molecular target: Cholecystokinin receptor type A (Homo sapiens) (UniProt P32238); assay: Selectivity interaction (CEREP panel (Eurofins, binding assay)) EUB0000262b CCKAR; conditions: at 10 µM
[14] = molecular target: T2, Histamine H1 receptor; assay: Selectivity interaction (CEREP panel (Eurofins, binding assay)) EUB0000262b HRH1; conditions: at 10 µM
[15] = molecular target: T5, Aurora kinase C (Homo sapiens) (UniProt Q9UQB9); assay: Selectivity interaction (KinomeScan (DiscoverX)) EUB0000262b AURKC; conditions: at 1 µM
T5 sequence (whole entry): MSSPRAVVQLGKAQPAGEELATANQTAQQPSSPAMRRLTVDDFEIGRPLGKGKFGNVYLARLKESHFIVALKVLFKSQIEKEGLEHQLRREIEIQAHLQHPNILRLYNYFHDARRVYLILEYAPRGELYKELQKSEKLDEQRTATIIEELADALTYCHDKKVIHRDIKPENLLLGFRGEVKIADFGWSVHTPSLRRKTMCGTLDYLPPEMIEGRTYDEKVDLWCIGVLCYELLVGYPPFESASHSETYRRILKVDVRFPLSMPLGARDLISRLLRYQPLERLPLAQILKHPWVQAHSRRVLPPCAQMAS

[16] = molecular target: MAP/microtubule affinity-regulating kinase 3 (Homo sapiens) (UniProt P27448); assay: Selectivity interaction (KinomeScan (DiscoverX)) EUB0000262b MARK3; conditions: at 1 µM
Chain of MAP/microtubule affinity-regulating kinase 3 (Homo sapiens) (P27448 whole entry, looked up): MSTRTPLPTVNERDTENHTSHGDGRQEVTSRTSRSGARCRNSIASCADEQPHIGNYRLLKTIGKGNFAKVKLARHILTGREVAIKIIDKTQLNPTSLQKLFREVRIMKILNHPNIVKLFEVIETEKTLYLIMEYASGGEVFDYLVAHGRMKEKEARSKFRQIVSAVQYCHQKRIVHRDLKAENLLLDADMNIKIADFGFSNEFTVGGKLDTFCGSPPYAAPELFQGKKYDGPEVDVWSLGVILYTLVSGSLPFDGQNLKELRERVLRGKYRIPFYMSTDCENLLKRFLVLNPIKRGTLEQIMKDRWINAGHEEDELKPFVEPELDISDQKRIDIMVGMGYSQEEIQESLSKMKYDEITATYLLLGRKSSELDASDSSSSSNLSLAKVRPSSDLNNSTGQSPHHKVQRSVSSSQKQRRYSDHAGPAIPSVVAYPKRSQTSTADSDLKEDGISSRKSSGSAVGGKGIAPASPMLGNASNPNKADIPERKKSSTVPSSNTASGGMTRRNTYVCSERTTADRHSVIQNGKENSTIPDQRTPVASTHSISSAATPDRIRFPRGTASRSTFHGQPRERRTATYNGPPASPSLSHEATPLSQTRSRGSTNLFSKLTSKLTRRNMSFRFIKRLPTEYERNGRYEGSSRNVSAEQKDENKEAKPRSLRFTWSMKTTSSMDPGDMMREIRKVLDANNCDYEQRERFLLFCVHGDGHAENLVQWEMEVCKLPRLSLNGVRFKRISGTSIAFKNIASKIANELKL

[17] = molecular target: Delta-type opioid receptor (Homo sapiens) (UniProt P41143); assay: Selectivity interaction (Enzyme panel (Eurofins-Cerep)) EUB0000262b OPRD1; conditions: at 10 µM
[18] = molecular target: T4, Prostaglandin G/H synthase 2 (Homo sapiens); assay: Selectivity interaction (CEREP panel (Eurofins, binding assay)) EUB0000262b PTGS2; conditions: at 10 µM
[19] = molecular target: T6, Gamma-aminobutyric acid receptor subunit alpha-1 (Homo sapiens, UniProt P14867); assay: Selectivity interaction (GPCR panel (PDSP screen)) EUB0000262b GABRA1
T6 sequence (P14867 whole entry): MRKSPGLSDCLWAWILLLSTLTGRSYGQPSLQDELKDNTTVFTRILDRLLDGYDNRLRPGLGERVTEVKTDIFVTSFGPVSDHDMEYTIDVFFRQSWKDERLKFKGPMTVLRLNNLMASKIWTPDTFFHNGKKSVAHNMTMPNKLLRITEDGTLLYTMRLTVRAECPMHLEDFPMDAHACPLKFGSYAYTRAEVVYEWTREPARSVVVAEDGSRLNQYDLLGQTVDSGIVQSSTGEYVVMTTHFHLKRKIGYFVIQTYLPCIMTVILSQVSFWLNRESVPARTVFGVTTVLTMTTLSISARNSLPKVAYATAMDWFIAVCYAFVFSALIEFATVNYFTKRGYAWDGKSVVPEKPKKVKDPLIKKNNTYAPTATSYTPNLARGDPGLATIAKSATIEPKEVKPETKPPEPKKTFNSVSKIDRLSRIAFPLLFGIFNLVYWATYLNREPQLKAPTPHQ

[20] = molecular target: Sodium-dependent noradrenaline transporter (Homo sapiens, UniProt P23975); assay: Selectivity interaction (CEREP panel (Eurofins, radioligand binding assay, enzymes, GPCRS, transporters, and ion channels)) EUB0000308b SLC6A2; conditions: at 10 µM
Chain of Sodium-dependent noradrenaline transporter (P23975 whole entry): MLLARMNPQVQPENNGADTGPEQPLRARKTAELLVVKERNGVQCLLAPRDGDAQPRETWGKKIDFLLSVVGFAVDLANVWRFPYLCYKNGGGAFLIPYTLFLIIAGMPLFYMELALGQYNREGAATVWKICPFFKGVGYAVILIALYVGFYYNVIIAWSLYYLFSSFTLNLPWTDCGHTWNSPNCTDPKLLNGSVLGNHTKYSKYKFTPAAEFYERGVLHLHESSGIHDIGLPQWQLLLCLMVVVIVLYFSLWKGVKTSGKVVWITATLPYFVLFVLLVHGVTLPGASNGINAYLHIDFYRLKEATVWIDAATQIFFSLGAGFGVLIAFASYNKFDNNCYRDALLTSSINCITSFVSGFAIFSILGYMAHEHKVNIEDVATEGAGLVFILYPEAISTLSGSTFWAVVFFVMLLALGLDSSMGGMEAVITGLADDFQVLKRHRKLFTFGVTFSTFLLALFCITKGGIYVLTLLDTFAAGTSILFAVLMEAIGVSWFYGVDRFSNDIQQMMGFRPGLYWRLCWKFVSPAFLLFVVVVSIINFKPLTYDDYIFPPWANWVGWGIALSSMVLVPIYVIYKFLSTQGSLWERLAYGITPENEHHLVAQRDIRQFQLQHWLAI

[21] = molecular target: Melatonin receptor type 1A (Homo sapiens) (UniProt P48039); assay: Selectivity interaction (CEREP panel (Eurofins, radioligand binding assay, enzymes, GPCRS, transporters, and ion channels)) EUB0000308b MTNR1A; conditions: at 10 µM
[22] = molecular target: Sigma non-opioid intracellular receptor 1 (Homo sapiens, UniProt Q99720); assay: Selectivity interaction (GPCR panel (PDSP screen)) EUB0000308b SIGMAR1
Chain of Sigma non-opioid intracellular receptor 1 (Q99720 whole entry): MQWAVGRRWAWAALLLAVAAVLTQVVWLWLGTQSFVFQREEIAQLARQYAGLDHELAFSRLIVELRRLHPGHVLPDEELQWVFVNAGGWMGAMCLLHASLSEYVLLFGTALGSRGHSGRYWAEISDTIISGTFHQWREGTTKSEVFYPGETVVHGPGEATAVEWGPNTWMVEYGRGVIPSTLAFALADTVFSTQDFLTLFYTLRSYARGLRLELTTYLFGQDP

[23] = molecular target: T7, Serine/threonine-protein kinase ULK2 (Homo sapiens) (UniProt Q8IYT8); assay: Selectivity interaction (KinomeScan (DiscoverX)) EUB0000308b ULK2; conditions: at 1 µM
T7 sequence (whole entry): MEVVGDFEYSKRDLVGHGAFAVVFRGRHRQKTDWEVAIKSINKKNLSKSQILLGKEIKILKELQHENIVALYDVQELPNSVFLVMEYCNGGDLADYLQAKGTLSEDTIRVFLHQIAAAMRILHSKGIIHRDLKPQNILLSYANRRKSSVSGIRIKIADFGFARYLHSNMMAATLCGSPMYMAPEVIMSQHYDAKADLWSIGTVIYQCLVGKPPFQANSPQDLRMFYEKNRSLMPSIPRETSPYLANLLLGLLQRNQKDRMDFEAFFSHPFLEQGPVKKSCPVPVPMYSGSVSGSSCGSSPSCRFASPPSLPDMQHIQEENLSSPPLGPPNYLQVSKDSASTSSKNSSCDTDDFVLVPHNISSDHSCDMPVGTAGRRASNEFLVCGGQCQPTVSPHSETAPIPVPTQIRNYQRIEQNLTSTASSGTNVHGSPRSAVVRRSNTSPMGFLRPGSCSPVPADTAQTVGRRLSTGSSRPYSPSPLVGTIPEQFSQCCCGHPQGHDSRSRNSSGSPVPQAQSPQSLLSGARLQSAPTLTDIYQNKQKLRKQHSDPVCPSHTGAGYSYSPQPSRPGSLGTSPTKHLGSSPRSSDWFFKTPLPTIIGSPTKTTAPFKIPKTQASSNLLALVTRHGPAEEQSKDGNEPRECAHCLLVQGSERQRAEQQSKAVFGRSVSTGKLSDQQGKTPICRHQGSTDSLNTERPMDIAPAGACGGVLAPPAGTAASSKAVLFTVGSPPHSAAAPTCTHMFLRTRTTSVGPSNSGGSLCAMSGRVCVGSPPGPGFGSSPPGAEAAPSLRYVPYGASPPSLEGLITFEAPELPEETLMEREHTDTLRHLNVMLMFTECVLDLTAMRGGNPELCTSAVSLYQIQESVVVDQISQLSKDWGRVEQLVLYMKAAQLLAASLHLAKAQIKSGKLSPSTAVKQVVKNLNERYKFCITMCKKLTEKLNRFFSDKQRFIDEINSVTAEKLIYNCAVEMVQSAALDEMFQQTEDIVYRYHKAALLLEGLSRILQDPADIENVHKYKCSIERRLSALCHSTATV

[24] = molecular target: Sodium-dependent dopamine transporter (Homo sapiens, UniProt Q01959); assay: Selectivity interaction (CEREP panel (Eurofins, radioligand binding assay, enzymes, GPCRS, transporters, and ion channels)) EUB0000308b SLC6A3; conditions: at 10 µM
Chain of Sodium-dependent dopamine transporter (Q01959 whole entry): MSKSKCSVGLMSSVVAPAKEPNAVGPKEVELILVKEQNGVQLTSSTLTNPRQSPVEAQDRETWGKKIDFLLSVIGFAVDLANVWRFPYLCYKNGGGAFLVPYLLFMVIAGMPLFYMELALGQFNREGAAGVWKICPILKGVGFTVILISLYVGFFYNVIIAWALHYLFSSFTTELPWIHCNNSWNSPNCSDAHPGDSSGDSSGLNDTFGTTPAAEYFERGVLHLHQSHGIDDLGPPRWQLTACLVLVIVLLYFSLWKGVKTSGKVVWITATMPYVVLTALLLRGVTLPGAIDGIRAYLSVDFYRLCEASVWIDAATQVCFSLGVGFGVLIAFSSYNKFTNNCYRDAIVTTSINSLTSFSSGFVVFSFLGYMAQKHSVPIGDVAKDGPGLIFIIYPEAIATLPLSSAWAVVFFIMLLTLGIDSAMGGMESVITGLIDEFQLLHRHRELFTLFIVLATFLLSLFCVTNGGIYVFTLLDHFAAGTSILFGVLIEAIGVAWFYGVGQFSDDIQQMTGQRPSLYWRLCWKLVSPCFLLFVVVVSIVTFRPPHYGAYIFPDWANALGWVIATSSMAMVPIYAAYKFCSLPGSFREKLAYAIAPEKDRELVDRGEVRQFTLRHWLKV

T1 sequence (P21397 whole entry): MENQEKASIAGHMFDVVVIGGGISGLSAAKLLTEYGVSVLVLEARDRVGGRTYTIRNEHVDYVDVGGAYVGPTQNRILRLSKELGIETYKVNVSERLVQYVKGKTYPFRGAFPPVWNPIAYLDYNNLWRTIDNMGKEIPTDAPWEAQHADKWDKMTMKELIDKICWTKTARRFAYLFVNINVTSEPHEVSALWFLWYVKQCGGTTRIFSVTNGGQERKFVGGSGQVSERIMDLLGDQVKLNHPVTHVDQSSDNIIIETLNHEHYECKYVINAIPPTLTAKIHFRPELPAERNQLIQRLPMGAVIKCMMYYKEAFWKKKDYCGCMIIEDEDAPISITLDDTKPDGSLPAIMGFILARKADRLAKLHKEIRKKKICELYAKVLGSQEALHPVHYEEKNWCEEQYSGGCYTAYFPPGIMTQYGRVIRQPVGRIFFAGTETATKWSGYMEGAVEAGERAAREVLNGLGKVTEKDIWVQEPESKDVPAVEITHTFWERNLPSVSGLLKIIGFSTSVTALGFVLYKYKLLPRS
T2 sequence (P35367 whole entry): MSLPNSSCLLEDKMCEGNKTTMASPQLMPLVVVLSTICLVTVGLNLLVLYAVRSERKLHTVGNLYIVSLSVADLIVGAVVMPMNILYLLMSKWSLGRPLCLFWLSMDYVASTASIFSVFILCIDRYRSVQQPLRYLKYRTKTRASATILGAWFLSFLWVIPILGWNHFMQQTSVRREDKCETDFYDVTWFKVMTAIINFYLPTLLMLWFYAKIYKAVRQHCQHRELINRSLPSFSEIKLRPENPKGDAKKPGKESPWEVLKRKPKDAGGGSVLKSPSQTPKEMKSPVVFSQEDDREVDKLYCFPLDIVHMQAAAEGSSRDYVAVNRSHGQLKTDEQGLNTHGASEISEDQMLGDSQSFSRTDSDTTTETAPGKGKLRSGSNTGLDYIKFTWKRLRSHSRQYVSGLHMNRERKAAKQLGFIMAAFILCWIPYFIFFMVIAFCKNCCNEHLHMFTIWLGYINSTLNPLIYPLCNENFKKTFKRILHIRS

% of inhibition [1]: 74.5%
% of inhibition [2]: 69.2%
% of inhibition [3]: 74.5%
% of inhibition [4]: 94.9%
% of inhibition [5]: 99.1%
% of inhibition [6]: 77.9%
% of inhibition [7]: 98.9%
% of inhibition [8]: 71.6%
% of inhibition [9]: 71.6%
% of inhibition [10]: 62.2%
% of inhibition [11]: 94.9%
% of inhibition [12]: 99.1%
% of inhibition [13]: 98.9%
% of inhibition [14]: 69.2%
% of control [15]: 9%
% of control [16]: 38%
% of inhibition [17]: 77.9%
% of inhibition [18]: 62.2%
Ki [19]: 794 nM
SMILES: CN(C)CC#Cc1ccc(OCCCc2sc(N3CCc4cccc(C(=O)Nc5nc6ccccc6s5)c4C3)nc2C(=O)O)c(F)c1 [A-1155463]

% of inhibition [20]: 32%
% of inhibition [21]: 31%
Ki [22]: 505 nM
% of control [23]: 46%
% of inhibition [24]: 43%
SMILES: Clc1cccc(-c2nnnn2Cc2cccnc2)c1Cl

From ChEMBL document CHEMBL5212743, “Selectivity Literature for EUbOPEN Chemogenomics Library wave 3” (2023)
